Experimental data from article PMC5863496, “Mesobuthus Venom-Derived Antimicrobial Peptides Possess Intrinsic Multifunctionality and Differential Potential as Drugs” (Frontiers in Microbiology, 2018).
Ends that are not written are not given here.

Legend:
Test in all cases: Inhibition-zone assay (CL)
Format in all cases: cell-based
[1] = tested on: methicillin-resistant Staphylococcus aureus P1374; details: MRSA P1374, N.A. = no activity at 0.8 nmol peptide each well
Procedure: (§1) The antimicrobial activity of seven peptides, including MeuFSPL-1, MeuFSPL-2, Marmelittin, Melittin, Meucin-22, Marcin-22, and MeuTXKβ1, was evaluated by the inhibition-zone assay previously described in our studies (Hultmark, [1998]; Zhu et al., [2012a]; Zhu and Gao, [2014]). Temperatures used were 30 or 37°C for bacteria or 28°C for fungi. Media used were Luria-Bertani (LB) Broth (10 g tryptone, 5 g yeast extract, and 5 g NaCl in 1 l of water) or Nutrient Broth (10 g peptone, 5 g beef extract powder, and 5 g NaCl in 1 l of water) or GYM(Isp2) (4 g yeast extract, 10 g malt extract, 4 g glucose, 2 g CaCO3 in 1 l of water) for bacteria or Potato Dextrose Broth (200 g patato and 20 g glucose in 1 l of water) for fungi. To make plates, 10 μl of microbial culture (~2 × 10^6 bacterial cells or fungal spores/ml) were mixed in 6 ml of medium containing 0.8% agar and poured into Peri dishes of 9.0 cm diameter. Wells with a diameter of 2 mm were punched into the medium, filled with 2 μl of sample each well. In this assay, three different doses of peptides were applied to three independent wells in one standard bacterial plate. After incubation overnight, inhibition zones were measured and used to calculate lethal concentrations (CL), a concentration just sufficient to inhibit bacterial growth (Hultmark, [1998]; Gao et al., [2009]). CL values are calculated from a plot of d^2 against log n, where d is the diameter (in cm) and n is the amount of sample applied in the well (in nmol). The plot is linear and thus CL can be calculated from the slope (k) and the intercept (m) of this plot. The formula used here is CL = 2.93/ak10^m/k, where “a” is the thickness of the bacterial plate and “CL” is in μM.

[2] = tested on: Micrococcus luteus CGMCC 1.0290; details: ML CGMCC 1.0290, N.A. = no activity at 0.8 nmol peptide each well
Procedure: as §1

[3] = tested on: Staphylococcus aureus J685; details: SA J685, N.A. = no activity at 0.8 nmol peptide each well
Procedure: as §1

[4] = tested on: Staphylococcus aureus J698; details: SA J698, N.A. = no activity at 0.8 nmol peptide each well
Procedure: as §1

[5] = tested on: penicillin-resistant Staphylococcus epidermidis P1389; details: PRSE P1389, N.A. = no activity at 0.8 nmol peptide each well
Procedure: as §1

[6] = tested on: Escherichia coli CIP. J14b; details: EC CIP. J14b, N.A. = no activity at 0.8 nmol peptide each well
Procedure: as §1

[7] = tested on: Bacillus subtilis CGMCC 1.2428; details: BS CGMCC 1.2428, N.A. = no activity at 0.8 nmol peptide each well
Procedure: as §1

[8] = tested on: Bacillus megaterium CGMCC 1.0459; details: BM CGMCC 1.0459, N.A. = no activity at 0.8 nmol peptide each well
Procedure: as §1

[9] = tested on: Staphylococcus warneri ATCC 1.2824; details: SW ATCC 1.2824, N.A. = no activity at 0.8 nmol peptide each well
Procedure: as §1

[10] = tested on: Escherichia coli ATCC 25922; details: EC ATCC 25922, N.A. = no activity at 0.8 nmol peptide each well
Procedure: as §1

[11] = tested on: methicillin-resistant Staphylococcus aureus P1386; details: MRSA P1386, N.A. = no activity at 0.8 nmol peptide each well
Procedure: as §1

[12] = tested on: penicillin-resistant Staphylococcus aureus P1383; details: PRSA P1383; inhibition-zone assay; N.A. = no activity at 0.8 nmol peptide each well
Procedure: as §1

[13] = tested on: Escherichia coli Am. J16c; details: EC Am. J16c, N.A. = no activity at 0.8 nmol peptide each well
Procedure: as §1

[14] = tested on: Streptococcus mutans ATCC 1.2499; details: SM ATCC 1.2499, N.A. = no activity at 0.8 nmol peptide each well
Procedure: as §1

[15] = tested on: Streptococcus salivarius ATCC 1.2498; details: SSAL ATCC 1.2498, N.A. = no activity at 0.8 nmol peptide each well
Procedure: as §1

[16] = tested on: Escherichia coli Am. J23a; details: EC Am. J23a, N.A. = no activity at 0.8 nmol peptide each well
Procedure: as §1

[17] = tested on: methicillin-resistant coagulase-negative Staphylococcus P1369; details: MRCNS P1369, N.A. = no activity at 0.8 nmol peptide each well
Procedure: as §1

Escherichia coli D. G2b = details: EC D. G2b, N.A. = no activity at 0.8 nmol peptide each well
Procedure: as §1

[18] = tested on: penicillin-sensitive Staphylococcus epidermidis P1111; details: PSSE P1111, N.A. = no activity at 0.8 nmol peptide each well
Procedure: as §1

[19] = tested on: Streptococcus sanguinis ATCC 1.2497; details: SSAN ATCC 1.2497, N.A. = no activity at 0.8 nmol peptide each well
Procedure: as §1

[20] = tested on: methicillin-sensitive Staphylococcus aureus CGMCC 1.89; details: MSSA CGMCC 1.89, N.A. = no activity at 0.8 nmol peptide each well
Procedure: as §1

[21] = tested on: Stenotrophomonas maltophilia CGMCC 1.1788; details: SMAL CGMCC 1.1788, N.A. = no activity at 0.8 nmol peptide each well
Procedure: as §1

[22] = tested on: Staphylococcus aureus J700; details: SA J700, N.A. = no activity at 0.8 nmol peptide each well
Procedure: as §1

[23] = tested on: Pseudomonas aeruginosa QT1; details: PA QT1, N.A. = no activity at 0.8 nmol peptide each well
Procedure: as §1

CC[C@H](C)[C@H](NC(=O)CN)C(=O)NCC(=O)N[C@@H](C)C(=O)N[C@H](C(=O)N[C@@H](CC(C)C)C(=O)N[C@@H](CCCCN)C(=O)N[C@H](C(=O)N[C@@H](CC(C)C)C(=O)N[C@H](C(=O)N[C@H](C(=O)NCC(=O)N[C@@H](CC(C)C)C(=O)N1CCC[C@H]1C(=O)N[C@@H](C)C(=O)N[C@@H](CC(C)C)C(=O)N[C@H](C(=O)N[C@@H](CO)C(=O)N[C@@H](Cc1c[nH]c2ccccc12)C(=O)N[C@H](C(=O)N[C@@H](CCCCN)C(=O)N[C@@H](CCCNC(=N)N)C(=O)N[C@@H](CCCCN)C(=O)N[C@@H](CCCNC(=N)N)C(=O)N[C@@H](CCC(N)=O)C(=O)N[C@@H](CCC(N)=O)C(N)=O)[C@@H](C)CC)[C@@H](C)CC)[C@@H](C)O)[C@@H](C)O)C(C)C)C(C)C [Melittin, reference compound]
Lethal concentration (CL) [1]: 11.6 µM
Lethal concentration (CL) [2]: 7.5 µM
Lethal concentration (CL) [3]: 13.70 µM
Lethal concentration (CL) [4]: 12.08 µM
Lethal concentration (CL) [5]: 9.1 µM
Lethal concentration (CL) [6]: 18.20 µM
Lethal concentration (CL) [7]: 9.2 µM
Lethal concentration (CL) [8]: 11.6 µM
Lethal concentration (CL) [9]: 1.37 µM
Lethal concentration (CL) [10]: 14.4 µM
Lethal concentration (CL) [11]: 9.3 µM
Lethal concentration (CL) [12]: 9.1 µM
Lethal concentration (CL) [13]: 24.54 µM
Lethal concentration (CL) [14]: 9.37 µM
Lethal concentration (CL) [15]: 18.20 µM
Lethal concentration (CL) [16]: 18.20 µM
Lethal concentration (CL) [17]: 9.3 µM
Lethal concentration (CL) (Escherichia coli D. G2b): 18.20 µM
Lethal concentration (CL) [18]: 13.4 µM
Lethal concentration (CL) [19]: 16.41 µM
Lethal concentration (CL) [20]: 7.9 µM
Lethal concentration (CL) [21]: 18.72 µM
Lethal concentration (CL) [22]: 12.08 µM

FFGHLFKLATKIIPSFFRRKNQ [MAC-22]
Lethal concentration (CL) [1]: 1.35 µM
Lethal concentration (CL) [2]: 2.58 µM
Lethal concentration (CL) [3]: 2.39 µM
Lethal concentration (CL) [4]: 2.39 µM
Lethal concentration (CL) [5]: 3.72 µM
Lethal concentration (CL) [6]: 12.03 µM
Lethal concentration (CL) [7]: 2.11 µM
Lethal concentration (CL) [8]: 1.35 µM
Lethal concentration (CL) [9]: 4.45 µM
Lethal concentration (CL) [10]: 10.69 µM
Lethal concentration (CL) [11]: 1.35 µM
Lethal concentration (CL) [23]: 10.98 µM
Lethal concentration (CL) [12]: 2.11 µM
Lethal concentration (CL) [13]: 15.15 µM
Lethal concentration (CL) [14]: 4.22 µM
Lethal concentration (CL) [15]: 4.22 µM
Lethal concentration (CL) [16]: 12.70 µM
Lethal concentration (CL) [17]: 1.35 µM
Lethal concentration (CL) (Escherichia coli D. G2b): 12.95 µM
Lethal concentration (CL) [18]: 1.35 µM
Lethal concentration (CL) [19]: 9.12 µM
Lethal concentration (CL) [20]: 1.35 µM
Lethal concentration (CL) [21]: 6.78 µM
Lethal concentration (CL) [22]: 2.39 µM

FFGHLFKLATKIIPSLFQ [MUC-18, reference compound]
Lethal concentration (CL) [1]: 3.35 µM
Lethal concentration (CL) [3]: 8.71 µM
Lethal concentration (CL) [4]: 5.16 µM
Lethal concentration (CL) [5]: 3.35 µM
Lethal concentration (CL) [6]: 22.72 µM
Lethal concentration (CL) [7]: 2.11 µM
Lethal concentration (CL) [9]: 11.69 µM
Lethal concentration (CL) [11]: 1.35 µM
Lethal concentration (CL) [23]: 18.49 µM
Lethal concentration (CL) [12]: 3.72 µM
Lethal concentration (CL) [13]: 22.72 µM
Lethal concentration (CL) [14]: 9.32 µM
Lethal concentration (CL) [15]: 9.24 µM
Lethal concentration (CL) [16]: 22.72 µM
Lethal concentration (CL) [17]: 4.89 µM
Lethal concentration (CL) (Escherichia coli D. G2b): 37.28 µM
Lethal concentration (CL) [18]: 0.87 µM
Lethal concentration (CL) [19]: 13.72 µM
Lethal concentration (CL) [20]: 0.87 µM
Lethal concentration (CL) [21]: 13.72 µM
Lethal concentration (CL) [22]: 6.86 µM

FLFSLIPSAISGLINAFK-NH2 [MeuFSPL-2]
Lethal concentration (CL) [1]: 3.61 µM
Lethal concentration (CL) [2]: 1.50 µM
Lethal concentration (CL) [3]: 5.36 µM
Lethal concentration (CL) [4]: 4.11 µM
Lethal concentration (CL) [5]: 5.13 µM
Lethal concentration (CL) [6]: 37.43 µM
Lethal concentration (CL) [7]: 4.01 µM
Lethal concentration (CL) [8]: 2.67 µM
Lethal concentration (CL) [9]: 8.65 µM
Lethal concentration (CL) [10]: 12.16 µM
Lethal concentration (CL) [11]: 5.13 µM
Lethal concentration (CL) [12]: 3.52 µM
Lethal concentration (CL) [14]: 5.23 µM
Lethal concentration (CL) [15]: 5.36 µM
Lethal concentration (CL) [16]: 37.43 µM
Lethal concentration (CL) [17]: 3.88 µM
Lethal concentration (CL) (Escherichia coli D. G2b): 21.42 µM
Lethal concentration (CL) [18]: 4.77 µM
Lethal concentration (CL) [19]: 2.70 µM
Lethal concentration (CL) [20]: 3.14 µM
Lethal concentration (CL) [21]: 3.52 µM
Lethal concentration (CL) [22]: 8.44 µM

FLFSLIPSAISGLISAFK-NH2 [MeuFSPL-1]
Lethal concentration (CL) [1]: 6.16 µM
Lethal concentration (CL) [2]: 2.26 µM
Lethal concentration (CL) [3]: 14.72 µM
Lethal concentration (CL) [4]: 4.80 µM
Lethal concentration (CL) [5]: 7.36 µM
Lethal concentration (CL) [7]: 4.74 µM
Lethal concentration (CL) [8]: 2.10 µM
Lethal concentration (CL) [9]: 2.81 µM
Lethal concentration (CL) [10]: 12.50 µM
Lethal concentration (CL) [11]: 6.24 µM
Lethal concentration (CL) [12]: 2.81 µM
Lethal concentration (CL) [13]: 43.66 µM
Lethal concentration (CL) [14]: 4.22 µM
Lethal concentration (CL) [15]: 4.80 µM
Lethal concentration (CL) [16]: 25.00 µM
Lethal concentration (CL) [17]: 8.48 µM
Lethal concentration (CL) (Escherichia coli D. G2b): 25.00 µM
Lethal concentration (CL) [18]: 7.36 µM
Lethal concentration (CL) [19]: 5.20 µM
Lethal concentration (CL) [20]: 5.27 µM
Lethal concentration (CL) [21]: 1.13 µM
Lethal concentration (CL) [22]: 10.92 µM
